{
  "source": "patent US6583334B1",
  "about": "“Ovariectomized mouse model for human menopause” (Board of Trustees operating Michigan State University, priority 2000, dated 2003)",
  "key": {"[1]": {"tested_on": "mammary gland duct ends", "test": "Elvax implants of RU486 or ICI 182,780: duct end enlargement in E+P injected OVX mice", "type": "in vivo, BALB/c virgin mice", "details": "for reduction of number of enlarged duct ends induced by E+P: implant vs control implant; for number of enlarged duct ends (mean ± S.E.M.) per implanted mammary gland: 3 days E + P", "experimental": "Ten-week old BALB/c virgin mice from our own colony were bilaterally ovariectomized 1 or 5 weeks (wks) before hormone treatment. All mice received sc daily injections of 1 μg 17b-estradiol (E)+1 mg progesterone (P) as a suspension in 0.04% gum arabic in 0.85% NaCl; control groups received vehicle only. The E+P dosage was determined from previous studies on mouse mammary gland (Magnusson, C., et al., Int J Cancer 81:339-344 (1999); and Beral V., et al., Lancet 350:1047-1059 (1997)) on the basis that it produced modest sidebranching and alveolar bud development ([…]., Endocrinology 122:464-470 (1998)), and resembled the normal breast tissue of postmenopausal women who had received […]., et al., J Clin Endocrinol Metab 84:4559-4565 (1999)). […] The effects of the implants on the mammary gland were quantified morphometrically by capturing a digitized microscopic image of the mammary gland wholemount at 10× magnification using NIH/Image One software. The numbers and size of duct ends were measured within a 2 cm radius of the implant. Duct ends were considered to be enlarged if they were 1.0 mm or greater in diameter at the 10× magnification."}, "[2]": {"tested_on": "MCF-7 human breast carcinoma cell line", "details": "cited from earlier work"}, "[3]": {"tested_on": "PR", "test": "PR immunohistochemistry/immunofluorescence after E", "type": "in vivo, mice", "source_text": "A dissociation between E stimulation of cell proliferation and PR regulation in mouse mammary gland has previously been reported (Fendrick, J. L., et al., J Mammary Gland Biol Neoplasia 3:7-22 (1998)). Although E appears to mediate proliferation of epithelial cells indirectly via stroma, E acts directly in epithelial cells to increase PR levels (Haslam, S. Z., Endocrinol 122:860-867 (1988)). Thus, our observations of increased responsiveness to the proliferative effect, but decreased responsiveness to the PR regulatory effect of E indicate that mammary epithelial and stromal cells are affected differently by long-term OVX. To confirm this observation, we have also used immunohistochemical analysis to determine the percentage of PR positive cells and PR concentration per cell, using a fluorescein-conjugated secondary antibody detection system, similar to the ER immunofluorescence assay herein. […] Future studies are planned to determine the mechanistic basis of these different responses to OVX. A similar dissociation of estrogenic regulation of proliferation and PR level has recently been reported for normal human breast (Clark, R. B., et al., Cancer Res 57:4987-4991 (1997)). […] In contrast, since ER and PR do co-localize in the same cells, E appears to act directly to regulate PR in breast epithelial cells. […]"}, "[4]": {"tested_on": "mammary gland", "test": "Mammary gland wholemount morphology after E in OVX mice", "type": "in vivo, BALB/c female mice", "experimental": "(§1) Ten-week-old or 9-12 month-old BALB/c female mice from our own colony were bilaterally ovariectomized (OVX) under Nembutal anesthesia 1 or 5 weeks prior to E treatment. […] Injection was chosen as the method of systemic administration to optimize precision and reproducibility of hormone dosage. Serum levels of E were determined after OVX and E injection by radioimmunoassay using a commercial kit (Diagnostic Products Corp., Los Angeles, Calif.) according to the suppliers instructions. […] Therefore, in all experiments except time course studies, mammary glands were analyzed at 72 h after E treatment for DNA histoautoradiogrpahy and at 96 h after E treatment for morphological analysis."}, "[5]": {"test": "Serum levels of E by radioimmunoassay", "type": "in vivo, BALB/c female mice", "details": "female, BALB/c, mouse, 24 h after injection of 1 μg E at 5 wks post OVX, n=4, read-out: E serum level", "experimental": "as §1"}, "[6]": {"tested_on": "progesterone receptor (PR)", "test": "Steroid hormone binding assay ([3H]R5020) for PR concentration after E", "type": "in vivo, BALB/c female mice", "experimental": "To determine PR concentration, cytoplasmic extracts were prepared separately for mammary gland and uteri as described previously (Haslam, S. Z., et al., Endocrinol 108:825-830 (1981)). Mammary gland and uterine cytoplasmic extracts were incubated with a single saturating concentration of 20 nM [^3H]R5020 with 100-fold excess radioinert dexamethasone (for suppression of progestin binding to glucocorticoid receptors) or with 100-fold excess radioinert R5020. Specific binding was determined using a dextran-coated charcoal assay procedure as previously described (Haslam, S. Z., et al., Endocrinol 108:825-830(1981)). Tissue DNA was quantitated as previously described (Ceriotti, G., J Biol Chem 198:297-303 (1952))."}, "[7]": {"tested_on": "mammary epithelial and stromal cells", "test": "DNA histoautoradiography (3H-thymidine labeling index) after E in OVX mice", "type": "in vivo, BALB/c female mice", "details": "for maximum proliferative response, 5 wk vs 1 wk post OVX: dose response study", "experimental": "Ten-week-old or 9-12 month-old BALB/c female mice from our own colony were bilaterally ovariectomized (OVX) under Nembutal anesthesia 1 or 5 weeks prior to E treatment. […] Injection was chosen as the method of systemic administration to optimize precision and reproducibility of hormone dosage.\nAt various times after E injection, animals received a single ip injection of [^3H]thymidine in a dosage of 2 μCi/g BW 1 h before sacrifice. The mammary glands were removed, fixed and processed as wholemounts followed by embedding and sectioning for histoautcradiographic analysis as described previously. Histological sections were examined at 400× magnification to determine the DNA labeling indices (LIs) of epithelial and stromal cells. […] In parallel, stromal cell LIs were determined for areas adjacent to and distal from duct ends. Adjacent areas were defined to be within […] of the duct end (i.e. in the same microscope field at 400× magnification) and the distal areas were defined to be more than 400 μm away from the duct end. A minimum of 10 individual structures were evaluated for each of 5-9 mice per experimental group."}, "[8]": {"tested_on": "progesterone receptor (PR)", "test": "PR ligand binding assay, time course of E induction of PR", "type": "in vivo, BALB/c virgin mice", "details": "for increase in PR levels: single injection of E", "experimental": "Hormone- or control-treated mammary glands were analyzed for progesterone receptor (PR) levels using a dextran-coated charcoal ligand binding assay (Haslam, S. G., Endocrinology 195:789-795 (1979)). Tissue DNA was quantitated as previously described (Ceriotti, G., J Biol Chem 198:297-303 (1952))."}, "[9]": {"details": "24 hr after E injection, 5 wk post OVX"}},
  "note": "Where “and” joins values, the source holds several entries; their conditions need not be identical. Equal values may be shown once. Entries after “also recorded” stand apart in the source; their conditions may differ. Read-outs that look alike come from different tables or passages of the source.",
  "data": [
    {"smiles": "C[C@]12CC[C@@H]3c4ccc(O)cc4C[C@@H](CCCCCCCCC[S+]([O-])CCCC(F)(F)C(F)(F)F)[C@H]3[C@@H]1CC[C@@H]2O", "note": "(stereo partly shown) [ICI 182,780]", "values": [
      {"measurement": "reduction of number of enlarged duct ends induced by E+P", "setting": "[1]; 5 wk post OVX", "result": 8, "unit": "fold"},
      {"measurement": "number of enlarged duct ends (mean ± S.E.M.) per implanted mammary gland", "setting": "[1]; late postmenopause (5 wk post OVX), 0.1 μg ICI 182,780 implant, n = 8", "result": "1.0 ± 1.0"}
    ]},
    {"smiles": "C[C@]12CC[C@@H]3c4ccc(O)cc4CC[C@H]3[C@@H]1CC[C@@H]2O", "note": "[E, 17β-estradiol]", "values": [
      {"measurement": "dose for maximal proliferative response", "setting": "[2]; MCF-7 cells deprived of estrogen for 1-6 months", "result": "10^−14 M"},
      {"measurement": "dose for maximal proliferative response", "setting": "[2]; MCF-7 cells, not estrogen-deprived", "result": "10^−10 M"},
      {"measurement": "increase in PR concentration per cell", "setting": "[3]; 1 wk post OVX E-treated mammary glands", "result": 2, "unit": "fold"},
      {"measurement": "numbers of PR positive cells or amount of PR per cell", "setting": "[3]; 5 wk post OVX E-treated glands", "result": "no significant increase"},
      {"measurement": "percentage of mammary glands exhibiting stimulation of duct ends", "setting": "[4]; 5 wk post OVX, after E treatment (single ip 1 μg, 4 days later)", "result": 100, "unit": "%"},
      {"measurement": "extent of stimulatory response to E as a function of time after ovariectomy", "setting": "[4]; 9-12 month old mice, OVX 1, 3 or 5 weeks prior to E", "result": "identical to that obtained in 10-week-old mice"},
      {"measurement": "effect on mammary gland morphology", "setting": "[4]; E treatment at 1 wk post OVX", "result": "no effect on morphology"},
      {"measurement": "effect on mammary gland morphology", "setting": "[4]; E treatment at 5 wk post OVX (late postmenopausal)", "result": "pronounced enlargement of duct ends; also recorded: produced enlarged duct ends"},
      {"measurement": "time of maximal morphological response after E injection", "setting": "[4]; mouse, in vivo", "result": 96, "unit": "h"},
      {"measurement": "morphological and DNA synthesis results", "setting": "[4]; ovariectomized plus adrenalectomized mice", "result": "identical to those obtained with ovariectomy alone"},
      {"measurement": "concentration at 24 h", "setting": "[5]", "result": "0.031 ± 0.0078", "unit": "ng/mL"},
      {"measurement": "increase in PR in mammary gland", "setting": "[6]; 12, 24 and 36 h after E injection, 5 wk post OVX", "result": "No increase"},
      {"measurement": "increase in PR binding in mammary gland", "setting": "[6]; 24 hr after E injection, 1 wk post OVX", "result": 2.5, "unit": "fold"},
      {"measurement": "increase in PR binding in mammary gland", "setting": "[6]; [9]", "result": "failed to increase; also recorded: no significant increase"},
      {"measurement": "increase in PR in uteri", "setting": "[6]; [9]", "result": 8, "unit": "fold"},
      {"measurement": "stimulation of DNA synthesis in stromal cells adjacent to duct ends, 5 wk vs 1 wk post OVX", "setting": "[7]; 1 μg E, 72 h", "result": 4, "unit": "fold"},
      {"measurement": "ED 50 of E-induced proliferation", "setting": "[7]; 1 vs 5 wk post OVX", "result": "identical"},
      {"measurement": "DNA synthesis in ducts", "setting": "[7]; E-treated, 1 and 5 wk post OVX", "result": "little or no DNA synthesis"},
      {"measurement": "maximal epithelial proliferative response, 5 wk vs 1 wk post OVX", "setting": "[7]; after 3 days of daily sc E injection", "result": 2.6, "unit": "fold"},
      {"measurement": "increased proliferative response in mammary stromal cells", "setting": "[7]; after long-term OVX (discussion)", "result": 3, "unit": "fold"},
      {"measurement": "E-induced stimulation of DNA synthesis in duct ends, 5 wk vs 1 wk post OVX", "setting": "[7]; duct end epithelium, 1 μg E, 72 h", "result": 6.5, "unit": "fold"},
      {"measurement": "maximum proliferative response, 5 wk vs 1 wk post OVX", "setting": "[7]; epithelial cells, 72 h", "result": 5.6, "unit": "fold"},
      {"measurement": "steady state stromal cell proliferation, 5 wk vs 1 wk post OVX", "setting": "[7]; long-term daily E treatment", "result": 2, "unit": "fold"},
      {"measurement": "steady state epithelial proliferation, 5 wk vs 1 wk post OVX", "setting": "[7]; long-term daily E treatment up to 28 days", "result": "2 fold and 2.3 fold"},
      {"measurement": "time of maximal DNA synthesis / proliferative response after E injection", "setting": "[7]; mammary epithelial and stromal cells", "result": 72, "unit": "h"},
      {"measurement": "maximum proliferative response, 5 wk vs 1 wk post OVX", "setting": "[7]; stromal cells, 72 h", "result": 2.5, "unit": "fold"},
      {"measurement": "number of daily E injections until PR levels increased above control", "setting": "[8]; 5 wk post OVX", "result": 7, "unit": "daily E injections"},
      {"measurement": "increase in PR levels", "setting": "[8]; 1 wk post OVX", "result": "2.5 fold and 2 fold"},
      {"measurement": "increase in PR levels", "setting": "[8]; 5 wk post OVX", "result": "failed to increase PR levels"}
    ]},
    {"smiles": "CC#C[C@]1(O)CC[C@H]2[C@@H]3CCC4=CC(=O)CCC4=C3[C@@H](c3ccc(N(C)C)cc3)C[C@@]21C", "note": "[RU486]", "values": [
      {"measurement": "reduction of number of enlarged duct ends induced by E+P", "setting": "[1]; 1 wk post OVX", "result": 9, "unit": "fold"},
      {"measurement": "number of enlarged duct ends (mean ± S.E.M.) per implanted mammary gland", "setting": "[1]; early postmenopause (1 wk post OVX), 0.1 μg RU486 implant", "result": "0.75 ± 0.25"},
      {"measurement": "number of enlarged duct ends (mean ± S.E.M.) per implanted mammary gland", "setting": "[1]; late postmenopause (5 wk post OVX), 0.1 μg RU486 implant", "result": "9.0 ± 1.0"}
    ]}
  ]
}
